This note sets out measurements from US20150313228A1, “SYNERGISTIC HERBICIDAL COMBINATIONS AND METHODS OF USE” (priority 2012, published 2015).

The data set deals with soybean varieties. As to the kind of experiment: Metribuzin sensitivity or tolerance phenotype of soybean varieties (Table S-3). Format: in vivo, Glycine max. The text has this: To observe the presence or absence of the “metribuzin sensitivity” or metribuzin tolerance phenotypes, soybean plants are typically exposed in early to mid-vegetative growth stages to one or more doses of metribuzin. Typical doses of metribuzin that can elicit a metribuzin sensitivity phenotype can range from about a 1-fold label application rate of a commercially available metribuzin formulation (i.e. about 0.25 pounds per acre) to about a 3-fold label application rate (i.e. about 0.75 pounds per acre) of a commercially available metribuzin formulation. Commercially available formulations containing metribuzin that can be used include, but are not limited to, Authority®MTZ (FMC Corporation, Philadelphia, Pa., USA); Boundary (Syngenta, Wilmington, Del., USA); Canopy® or Lexone® (Dupont, Wilmington, Del., USA); Sencor® (Bayer Crop Science, Research Triangle Park, N.C., USA); or TriCor® DF (United Phosphorus, Inc., King of Prussia, Pa., USA. In certain embodiments, the commercially available metribuzin formulation used is TriCor® 75DF. In certain embodiments, doses of metribuzin that can elicit a metribuzin sensitivity phenotype can range from about a 1 fold application rate of about 0.25 pounds per acre to about a three fold application rate of 0.75 pounds per acre.
The metribuzin sensitivity phenotype can be observed approximately one week to three weeks after herbicide application in certain soybean varieties that are sensitive to metribuzin. Metribuzin is typically applied during pre and post-emergent vegetative growth stages. In certain embodiments of these methods, metribuzin can be applied to the soil about 2 days prior to soybean seed planting and activated by irrigation of the planted seed to score for the presence of the metribuzin sensitivity phenotype. Genotypes provided herein are especially useful for providing metribuzin tolerance to plants exposed to metribuzin by a pre-emergence soil drench. As discussed herein, the vegetative stages of soybean are as follows: VE (emergence), VC (cotyledon stage), V1 (first trifoliate leaf), V2 (second trifoliate leaf), V3 (third trifoliate leaf), V(n) (nth trifoliate leaf), and V6 (flowering will soon start). As discussed herein, the reproductive stages of soybean are as follows: R1 (beginning bloom), R2 (full bloom), R3 (beginning pod), R4 (full pod), R5 (beginning seed), R6 (full seed), R7 (beginning maturity) and R8 (full maturity). A description of the soybean vegetative and reproductive stages can be found on the World Wide Web (internet) at ag.ndsu.edu/pubs/plantsci/rowcrops/a1174/a1174w.htm (North Dakota State University publication A-1174, June 1999, Reviewed and Reprinted August 2004).
A rating scale that evaluates the degree of metribuzin sensitivity can also be employed to identify “metribuzin sensitive” and “metribuzin tolerant” plants. An exemplary and non-limiting scale for evaluating the Metribuzin sensitivity phenotype is as follows, where a low number corresponds to a “metribuzin tolerance” phenotype and the a high number correlates to a “metribuzin sensitivity” phenotype:
A non-limiting and exemplary list of soybean plants that comprise genomic regions associated with either a metribuzin sensitivity or a metribuzin tolerance phenotype are provided herewith in Table S-3.

Consider `CSc1nnc(C(C)(C)C)c(=O)n1N` [Metribuzin, 4-amino-6-(1,1-dimethylethyl)-3-(methylthio)-1,2,4-triazin-5(4H)-one], for which the “METRIBUZIN PHENOTYPE” value is “Tolerant” (soybean variety AG4531); “Tolerant” (soybean variety AG4730); “Sensitive” (soybean variety AG6130); “Sensitive” (soybean variety AG6730); “Tolerant” (soybean variety AG6931); “Sensitive” (soybean variety BURLISON (from TRACY)). The “METRIBUZIN PHENOTYPE” value by setting is: (soybean variety DASSEL (from PAGODA)) “Sensitive”; (soybean variety H7550) “Sensitive”; (soybean variety PAGODA) “Sensitive”; (soybean variety TRACY) “Sensitive”; (soybean variety Tracy-M) “Tolerant”.
